We go through 1 compound from patent publication US10662445B2, “Process for the production of bio-butanol by fermentation of glycosidic waste matter” (priority 2018, dated 2020).

Some results are limits rather than exact numbers.

Data set [1] in a line: Organic-solvent extraction of microbial inhibitors from an agro-waste hydrolysate mimic. The class given is physicochemical. The conditions noted are these: solvent bis-(2-ethylhexyl) sebacate.
The next data set concerns cellulase enzyme. The settings on record: cited from earlier work.
The test system of data set [2] is solventogenic Clostridia (ABE fermentation). The settings on record: cited from earlier work.
Setting [3] is: homogenizer rotational speed 100 rpm.
Where [4] appears, read: homogenizer rotational speed 200 rpm.
The mark [5] stands for this setting: homogenizer rotational speed 250 rpm.
[6] abbreviates: homogenizer rotational speed 300 rpm.
The mark [7] stands for this setting: homogenizer rotational speed 400 rpm.

In the case of `COc1cc(C=O)cc(OC)c1O` [Syringaldehyde, syringaldehyde], the “Inhibitor extraction, phase separation by centrifugal force” value in data set [1] (setting [3]), in data set [1] (setting [4]), in data set [1] (setting [5]), in data set [1] (setting [6]) and in data set [1] (setting [7]) was 100% throughout. In addition, the “Inhibitor extraction, phase separation by separating funnel” value in data set [1] (setting [3]), in data set [1] (setting [4]), in data set [1] (setting [5]), in data set [1] (setting [6]) and in data set [1] (setting [7]) was 100% throughout. Also, the “Concentration showing strong inhibition on cellulase enzyme activity” value in the data set with cellulase enzyme is listed as 1. (0.05 g/L) showed strong inhibition. Also, the Inhibitory concentration in data set [2] (ABE fermentation) is greater than 0.05 g/L. In data set [2], the “Concentration that stopped ABE production” value is given as 2. (0.3-1.0 g/L) stopped ABE production.
